# Experimental data: PMC9516332 (Frontiers in Oncology, 2022)
# Like-named read-outs stand apart in the source and are kept apart here.
# Test system: 134 cancer cell lines
# Test: Cell viability assay (ATPlite, 72 hours), IC50 on cancer cell line panel
structure (smiles),measurement,setting,value
CC(C)(C)c1nc(-c2cccc(NS(=O)(=O)c3c(F)cccc3F)c2F)c(-c2ccnc(N)n2)s1 [dabrafenib],IC50,"Homo sapiens, MOLT-4, read-out: IC50 in cell proliferation assay, MOLT-4 cell line",> 10000 nM
same,IC50,"Homo sapiens, MV4-11, read-out: IC50 in cell proliferation assay, MV4-11 cell line (FLT3 ITD)",8020 nM
same,IC50,"Homo sapiens, MeWo, read-out: IC50 in cell proliferation assay, MeWo cell line",1020 nM
same,IC50,"Homo sapiens, NCCIT, read-out: IC50 in cell proliferation assay, NCC-IT cell line",1160 nM
same,IC50,"Homo sapiens, NCI-H82, read-out: IC50 in cell proliferation assay, cell line NCI-H82",1120 nM
same,IC50,"Homo sapiens, NCI-H460, read-out: IC50 in cell proliferation assay, NCI-H460 cell line",1150 nM
same,IC50,"Homo sapiens, NCI-H661, read-out: IC50 in cell proliferation assay, NCI-H661 cell line",> 10000 nM
same,IC50,"Homo sapiens, NCI-H716, read-out: IC50 in cell proliferation assay, cell line NCI-H716 (FGFR2-COL14A1)",1170 nM
same,IC50,"Homo sapiens, NCI-H1650, read-out: IC50 in cell proliferation assay, NCI-H1650 cell line (EGFR exon19del)",> 10000 nM
same,IC50,"Homo sapiens, NCI-H1975, read-out: IC50 in cell proliferation assay, NCI-H1975 cell line (EGFR p.L858R + p.T790M)",1420 nM
same,IC50,"Homo sapiens, NCI-H2228, read-out: IC50 in cell proliferation assay, NCI-H2228 cell line (EML4-ALK)",2200 nM
same,IC50,"Homo sapiens, OVCAR-3, read-out: IC50 in cell proliferation assay, cell line OVCAR-3",1040 nM
same,IC50,"Homo sapiens, PFSK-1, read-out: IC50 in cell proliferation assay, cell line PFSK-1",> 10000 nM
same,IC50,"Homo sapiens, RL95-2, read-out: IC50 in cell proliferation assay, cell line RL95-2 (EGFR p.A289V)",2990 nM
same,IC50,"Homo sapiens, RPMI-7951, read-out: IC50 in cell proliferation assay, cell line RPMI-7951 (BRAF p.V600E)",43 nM
same,IC50,"Homo sapiens, RS4-11, read-out: IC50 in cell proliferation assay, cell line RS4;11",1210 nM
same,IC50,"Homo sapiens, Rec1, read-out: IC50 in cell proliferation assay, cell line REC-1",975 nM
same,IC50,"Homo sapiens, SHP77, read-out: IC50 in cell proliferation assay, cell line SHP-77",> 10000 nM
same,IC50,"Homo sapiens, SK-BR-3, read-out: IC50 in cell proliferation assay, cell line SK-BR-3 (ERBB2 amplification)",1570 nM
same,IC50,"Homo sapiens, SK-N-AS, read-out: IC50 in cell proliferation assay, cell line SK-N-AS",3020 nM
same,IC50,"Homo sapiens, SK-N-FI, read-out: IC50 in cell proliferation assay, cell line SK-N-FI",> 10000 nM
same,IC50,"Homo sapiens, SK-N-MC, read-out: IC50 in cell proliferation assay, cell line SK-N-MC",1780 nM
same,IC50,"Homo sapiens, SK-N-SH, read-out: IC50 in cell proliferation assay, cell line SK-N-SH (ALK p.F1174L)",2140 nM
same,IC50,"Homo sapiens, SNU-5, read-out: IC50 in cell proliferation assay, cell line SNU-5 (MET amplification)",> 10000 nM
same,IC50,"Homo sapiens, SNU-16, read-out: IC50 in cell proliferation assay, cell line SNU-16 (FGFR2 amplification)",> 10000 nM
same,IC50,"Homo sapiens, SNU-C2B, read-out: IC50 in cell proliferation assay, cell line SNU-C2B (EGFR p.R165Q)",> 10000 nM
same,IC50,"Homo sapiens, SU-DHL-1, read-out: IC50 in cell proliferation assay, cell line SU-DHL-1 (NPM1-ALK)",> 10000 nM
same,IC50,"Homo sapiens, SU-DHL-6, read-out: IC50 in cell proliferation assay, cell line SU-DHL-6",2610 nM
same,IC50,"Homo sapiens, SUP-T1, read-out: IC50 in cell proliferation assay, cell line SUP-T1",> 10000 nM
same,IC50,"Homo sapiens, SW48, read-out: IC50 in cell proliferation assay, cell line SW48 (EGFR p.G719S)",3010 nM
same,IC50,"Homo sapiens, SW480, read-out: IC50 in cell proliferation assay, cell line SW480",2990 nM
same,IC50,"Homo sapiens, SW626, read-out: IC50 in cell proliferation assay, cell line SW626",> 10000 nM
same,IC50,"Homo sapiens, SW780, read-out: IC50 in cell proliferation assay, cell line SW780 (FGFR3-BAIAP2L1)",> 10000 nM
same,IC50,"Homo sapiens, SW837, read-out: IC50 in cell proliferation assay, cell line SW837",> 10000 nM
same,IC50,"Homo sapiens, SW872, read-out: IC50 in cell proliferation assay, cell line SW872 (BRAF p.V600E)",25 nM
same,IC50,"Homo sapiens, SW900, read-out: IC50 in cell proliferation assay, cell line SW900",1120 nM
same,IC50,"Homo sapiens, SW948, read-out: IC50 in cell proliferation assay, cell line SW948",2720 nM
same,IC50,"Homo sapiens, SW982, read-out: IC50 in cell proliferation assay, cell line SW982 (BRAF p.V600E)",1160 nM
same,IC50,"Homo sapiens, SW-620, read-out: IC50 in cell proliferation assay, cell line SW620",> 10000 nM
same,IC50,"Homo sapiens, T98G, read-out: IC50 in cell proliferation assay, cell line T98G",> 10000 nM
same,IC50,"Homo sapiens, TCC-SUP, read-out: IC50 in cell proliferation assay, cell line TCCSUP",2080 nM
same,IC50,"Homo sapiens, THP-1, read-out: IC50 in cell proliferation assay, cell line THP-1",> 10000 nM
same,IC50,"Homo sapiens, U2OS, read-out: IC50 in cell proliferation assay, cell line U2OS",> 10000 nM
same,IC50,"Homo sapiens, U-87 MG, read-out: IC50 in cell proliferation assay, cell line U-87MG ATCC",3600 nM
same,IC50,"Homo sapiens, U-118-MG, read-out: IC50 in cell proliferation assay, cell line U-118MG",2210 nM
same,IC50,"Homo sapiens, UMUC3, read-out: IC50 in cell proliferation assay, cell line UM-UC-3",1950 nM
same,IC50,"Hs766T, read-out: IC50 in cell proliferation assay, Hs 766T cell line",> 10000 nM
same,IC50,"L-82, read-out: IC50 in cell proliferation assay, L-82 cell line (NPM1-ALK)",> 10000 nM
same,IC50,"Rh30, read-out: IC50 in cell proliferation assay, cell line Rh30",> 10000 nM
same,IC50,"read-out: IC50 in cell proliferation assay, 11-18 cell line (EGFR p.L858R)",> 10000 nM
same,IC50,"read-out: IC50 in cell proliferation assay, Hs 852.T cell line",1420 nM
same,IC50,"read-out: IC50 in cell proliferation assay, JAR cell line",1530 nM
same,IC50,"read-out: IC50 in cell proliferation assay, cell line 5637",562 nM
same,IC50,"read-out: IC50 in cell proliferation assay, cell line A-388",> 10000 nM
same,IC50,"read-out: IC50 in cell proliferation assay, cell line DB",1720 nM
same,IC50,"read-out: IC50 in cell proliferation assay, cell line DEL (NPM1-ALK)",> 10000 nM
same,IC50,"read-out: IC50 in cell proliferation assay, cell line ES-2 (BRAF p.V600E)",130 nM
same,IC50,"read-out: IC50 in cell proliferation assay, cell line PA-1",1710 nM
same,IC50,"read-out: IC50 in cell proliferation assay, cell line PC-3",> 10000 nM
same,IC50,"read-out: IC50 in cell proliferation assay, cell line RD",1790 nM
same,IC50,"read-out: IC50 in cell proliferation assay, cell line RKO (BRAF p.V600E)",11 nM
same,IC50,"read-out: IC50 in cell proliferation assay, cell line RL",> 10000 nM
same,IC50,"read-out: IC50 in cell proliferation assay, cell line RT-4 (FGFR3-TACC3)",> 10000 nM
same,IC50,"read-out: IC50 in cell proliferation assay, cell line SR (NPM1-ALK)",1760 nM
same,IC50,"read-out: IC50 in cell proliferation assay, cell line T24",1170 nM
same,IC50,"read-out: IC50 in cell proliferation assay, cell line TT (RET p.C634W)",> 10000 nM
same,IC50,"read-out: IC50 in cell proliferation assay, cell line VA-ES-BJ",2100 nM
